From patent publication US20090233841A1, “ANALGESIC CONJUGATES” (Regents of the University of Minnesota, priority 2005, published 2009)
Entries after “also recorded” stand apart in the source; their conditions may differ.

Assays:
mice = test: Conditioned place preference (CPP); type: in vivo, mouse; conditions: for conditioned place preference: IV; for conditioned place preference (summary statement): dose not restated
Method: Conditioned place preference (CPP) is a technique used to measure the rewarding properties of a drug. Two sides of the CPP apparatus have both visual and tactile differences, so that a mouse can tell the difference between sides. On the first day of testing, the time each mouse spends in either side of the apparatus is measured. For the next three days, the drug is “paired” with one side or the other by injecting the mouse and immediately confining it to that side. On the final day, the amount of time the mouse spends in the drug-paired side is determined and the percent change is calculated. If the percent change is positive, the drug is thought to be rewarding and likely to be abused by humans.
Methods The CPP apparatus used was a plastic box, approximately 12 inches×6 inches×6 inches (1/w/h). One half of the box was transparent with a scored or textured floor and the other half of the box had blue vertical stripes with a smooth floor. The box was divided such that the mice could go from one side to the other through an opening or be confined to one side.
Preconditioning On day 1, each mouse was allowed to explore both sides of the box for 15 minutes to expose them to the novel environment. On day 2, each mouse was placed into the box for 15 minutes and the amount of time the mouse spent in each side of the box was recorded. Mice that spend more than 9 minutes in one side of the box are excluded (two of 32 mice were excluded).
Conditioning On day 3, each mouse was given two sets of IV injections. First, the mice were injected with saline and randomly confined to one side of the box for 30 minutes. The mice were then injected with the drug (or saline, for control mice) and confined to the other side of the box (“drug-paired side”) for 30 minutes. This conditioning paradigm was repeated for three days.
Postconditioning On day 6, the amount of time the mouse spent in each side of the box was recorded. For the results, the amount of time the mouse spent in the drug-paired side during preconditioning was subtracted from the time spent in the drug-paired side during post-conditioning to reach a “score”: Score=Postconditioning time in drug-paired side-Preconditioning time spent in drug-paired side.
FIG. 1 depicts the percent change in time spent in the drug-paired side. The asterisks in the graph indicate significant difference from saline (p<0.05).

male ICR mice [1] = test: Physical dependence: naloxone-precipitated withdrawal jumping after chronic ICV infusion; type: in vivo, mouse; conditions: for physical dependence on chronic ICV administration: 3-day ICV infusion, naloxone-precipitated jumping; for # of Jumps (SEM), naloxone-precipitated withdrawal: average jumps in 10 minutes after naloxone 1 mg/kg sc, after 3-day ICV infusion
Method: (§1) Chronic administration To investigate tolerance and dependence associated with these conjugates, chronic ICV administration studies were performed. The compound of interest was administered ICV via a cannula using an osmotic minipump for 3 days, as previously described (Gomori et al., 2003; Mashiko et al., 2003). Withdrawal was measured by administering naloxone (1 mg/kg; subcutaneous (sc)) and counting the naloxone-precipitated jumps for 10 minutes. Tolerance was determined by administering challenge doses of the compound after chronic infusion for 3 days, and determining the chronic ED50 value at that time.
(§2) Chronic ICV infusion. Osmotic minipumps (model 1003D, Alzet, Durect Corporation, Cupertino, Calif.) were filled with saline or the drug to be tested. The dose of each drug was twelve times its ED50 (nmol)/hour. The minipumps were connected by a 1.6-1.8 cm length of PE-60 tubing to a 3-mm long cannula (osmotic pump connector cannula, Plastics One, Roanoke, Va.) and primed in sterile saline at 37° C. overnight.
(§3) The next day, mice were anesthetized with Avertin (2,2,2-tribromoethanol (370 mg/kg, IP)/tert amyl alcohol (0.16 mg/kg, IP)) before surgery. The scalp was shaved and an incision was made along the midline of the scalp. Hemostats were used to make a pocket under the skin between the shoulder blades. The skull was scraped clean of periosteum so that the cannula pedestal would properly adhere to the skull. A micro drill (Fine Science Tools Inc., Foster City, Calif.) was used to drill a hole approximately 1.6 mm lateral and 0.6 mm caudal to bregma. The minipump was placed between the shoulder blades, the cannula was inserted in the drilled hole into the lateral ventricle, and the cannula pedestal was affixed to the skull with cyanoacrylate glue. The animals were allowed to recover on a heating pad (Fine Science Tools, Foster City, Calif.) and were returned to their cages in the animal facility for three days.
Testing for dependence and tolerance. The development of physical dependence was assessed by quantifying withdrawal jumping observed during precipitated withdrawal (Way et al., 1969) on the fourth day after surgery. Mice were injected with naloxone (1 mg/kg, sc) and placed into Plexiglas cylinders for 10 minutes. During those 10 minutes, vertical jumps were counted as withdrawal signs.

male ICR mice [2] = test: Tolerance: tail flick ED50 after 3-day chronic ICV infusion (osmotic minipump); type: in vivo, mouse; conditions: for tolerance on chronic ICV administration: 3-day ICV infusion; for Chronic ED50 nmol (95% C.L.): compound chronically administered ICV for 3 days, then challenge doses; for Saline ED50 nmol (95% C.L.): saline chronically administered ICV for 3 days, then challenge doses of compound
Method: as §1, §2, §3
To test the degree of tolerance developed, the osmotic minipump was removed and the mice were returned to their cages for four hours. The mice were then injected with the test drug into the contralateral lateral cerebral ventricle and antinociception was measured with the tail flick test as described above.

male ICR mice [3] = test: Mouse radiant heat tail flick assay after acute ICV administration; type: in vivo; conditions: for ED50 nmol (95% C.L.), antinociceptive potency: mouse tail flick, acute ICV administration, conjugates and coadministration; for effect of naltrindole pretreatment on ED50 / acute analgesic activity: pretreatment with the delta antagonist naltrindole; for ED50 ICV (nmol): tail flick, Table 2
Method: Acute drug administration. Drugs were dissolved in sterile saline (0.9% NaCl). Animals were anesthetized with halothane and drugs were administered with a Hamilton syringe mated to a shortened (3 mm) 27-g needle in a volume of 4 μl by ICV injection into the lateral cerebral ventricle (Haley et al., 1957). The injection site was 1.6 mm lateral and 0.6 mm caudal to bregma.
Antinociceptive testing. […] Mice were tested once before injection (control time).

male ICR mice [4] = test: Mouse tail flick assay after IV administration; conditions: for decrease in potency when administering IV versus ICV: tail flick ED50 IV versus ICV
Method: Antinociceptive testing. Antinociception was evaluated by the radiant heat tail flick assay (D'Amour et al., 1941). Briefly, a beam of light was focused on the mouse tail and the time until the tail flicked was measured. Each animal served as its own control and was used only once. Mice were tested once before injection (control time). After injection, the mice were tested at the time of peak drug response (drug time), as determined by pilot time course studies. The light intensity was adjusted so that control times were between 1.5 and 2.5 s. A 10 second cutoff drug time was set to minimize the risk of tissue damage. Percent maximum possible effect (% MPE) was calculated as follows (Dewey et al., 1970): […]
Graded dose response curves of at least 4 doses with at least 8 mice per dose were generated from the % MPE data.
Methods Drugs were administered IV via the tail vein in a volume of 100 μl to male ICR mice. Fifteen minutes later, antinociception was measured by the tail flick assay and charcoal meal (300 μl, oral) was administered by gavage. Thirty minutes after the charcoal meal., the mice were sacrificed by halothane overdose and the distance the charcoal traveled relative to the entire length of the GI tract was compared to the distance traveled in control animals injected with saline. The conjugates tested (MDAN-16, MDAN-19, MDAN-20, and MDAN-21) had linker lengths of 19, 23, 24, and 25 Å.

male ICR mice [5] = test: GI transit inhibition (charcoal meal) after IV administration; type: in vivo, mouse

Q: For `CN1CCC23c4c5ccc(O)c4OC2C(NC(=O)COCC(=O)NCCNC(=O)COCC(=O)Nc2cccc4c6c([nH]c24)C2Oc4c(O)ccc7c4C24CCN(CC2CC2)C(C7)C4(O)C6)CCC3(O)C1C5` (stereo not shown) [Compound 3], which “conditioned place preference” value (mice; 4× the ED90 analgesic dose) is on record?
A: Its value is “suggested a place preference”.

Q: And the “physical dependence on chronic ICV administration” value (male ICR mice [1]; listed as MDAN-16)?
A: Its value is “produced both tolerance and dependence; also recorded: both tolerance and physical dependence developed”.

Q: What about the “# of Jumps (SEM), naloxone-precipitated withdrawal” value (shortened to “# of Jumps (SEM)”) (male ICR mice [1]) of the same molecule?
A: Its value is 30 (23).

Q: What about the “# of Jumps (SEM)” value (male ICR mice [1]; listed as MDAN-16) of the same molecule?
A: Its value is 30.

Q: And the “tolerance on chronic ICV administration” value (male ICR mice [2]; listed as MDAN-16)?
A: Its value is “produced both tolerance and dependence; also recorded: both tolerance and physical dependence developed”.

Q: And the “Chronic ED50 nmol (95% C.L.)” value (male ICR mice [2])?
A: The value was 4.72 (3.47-5.91) nmol.

Q: And the “Saline ED50 nmol (95% C.L.)” value (male ICR mice [2])?
A: The value was 1.62 (1.35-1.89) nmol.

Q: And the “fold increase in ED50 value after chronic ICV infusion” value (male ICR mice [2]; three-day ICV infusion)?
A: Its value is 2.6 fold.

Q: And the “ED50 nmol (95% C.L.), antinociceptive potency” value (male ICR mice [3])?
A: The value was 1.79 (1.54-2.04) nmol.

Q: And the “effect of naltrindole pretreatment on ED50 / acute analgesic activity” value (male ICR mice [3])?
A: Its value is “This effect was not observed”.

Q: What does the source list for `CN1CCC23c4c5ccc(O)c4OC2C(NC(=O)COCC(=O)NCCCCCNC(=O)COCC(=O)Nc2cccc4c6c([nH]c24)C2Oc4c(O)ccc7c4C24CCN(CC2CC2)C(C7)C4(O)C6)CCC3(O)C1C5` (stereo not shown) [Compound 6]?
A: conditioned place preference (mice; 4× the ED90 analgesic dose): did not display a place preference; physical dependence on chronic ICV administration (male ICR mice [1]; listed as MDAN-19): no tolerance or dependence was observed; also recorded: produced no tolerance or physical dependence; # of Jumps (SEM), naloxone-precipitated withdrawal (male ICR mice [1]): 3.6 (1.7); tolerance on chronic ICV administration (male ICR mice [2]; listed as MDAN-19): no tolerance or dependence was observed; also recorded: produced no tolerance or physical dependence; Chronic ED50 nmol (95% C.L.) (male ICR mice [2]): 0.40 (0.33-0.47) nmol; Saline ED50 nmol (95% C.L.) (male ICR mice [2]): 0.42 (0.37-0.47) nmol; ED50 nmol (95% C.L.), antinociceptive potency (male ICR mice [3]): 0.43 (0.36-0.50) nmol; effect of naltrindole pretreatment on ED50 / acute analgesic activity (male ICR mice [3]): acute analgesic activity was similar to the control ligand MA-19

Q: What does the source list for `CN1CCC23c4c5ccc(O)c4OC2C(NC(=O)COCC(=O)NCCCCCCCNC(=O)COCC(=O)Nc2cccc4c6c([nH]c24)C2Oc4c(O)ccc7c4C24CCN(CC2CC2)C(C7)C4(O)C6)CCC3(O)C1C5` (stereo not shown) [Compound 8]?
A: conditioned place preference (mice; 4× the ED90 analgesic dose): did not display a place preference; conditioned place preference (summary statement) (mice): does not produce conditioned place preference; decrease in potency when administering IV versus ICV (male ICR mice [4]): ~40 ×; ED50 IV (nmol) (male ICR mice [4]; tail flick, IV): 3.3 (3.0-3.6) nmol; potency relative to morphine when given IV (male ICR mice [4]; tail flick, IV): 50 fold; physical dependence on chronic ICV administration (male ICR mice [1]; listed as MDAN-21): no tolerance or dependence was observed; also recorded: produced no tolerance or physical dependence; # of Jumps (SEM), naloxone-precipitated withdrawal (male ICR mice [1]): 3.5 (1.7); tolerance on chronic ICV administration (male ICR mice [2]; listed as MDAN-21): no tolerance or dependence was observed; also recorded: produced no tolerance or physical dependence; Chronic ED50 nmol (95% C.L.) (male ICR mice [2]): 0.10 (0.09-0.11) nmol; Saline ED50 nmol (95% C.L.) (male ICR mice [2]): 0.10 (0.09-0.11) nmol; ED50 nmol (95% C.L.), antinociceptive potency (male ICR mice [3]): 0.08 (0.06-0.10) nmol; ED50 ICV (nmol) (male ICR mice [3]): 0.08 (0.06-0.10) nmol

Q: For `CN1CC[C@]23c4c5ccc(O)c4O[C@H]2[C@@H](O)C=C[C@H]3[C@H]1C5` [Morphine, reference compound], which “conditioned place preference” value (mice; 2× the ED90 analgesic dose) is on record?
A: Its value is “exhibiting a conditioned place preference”.

Q: And the “conditioned place preference” value (mice; 4× the ED90 analgesic dose)?
A: Its value is “demonstrated conditioned place preference”.

Q: And the “conditioned place preference (summary statement)” value (mice)?
A: The value was “produced conditioned place preference”.

Q: What about the “efficacy in the TF test” value (male ICR mice [4]; IV, tail flick 15 min after drug) of the same molecule?
A: Its value is “fully efficacious”.

Q: What about the “decrease in potency when administering IV versus ICV” value (male ICR mice [4]) of the same molecule?
A: Its value is about 40 ×.

Q: What about the “ED50 IV (nmol)” value (male ICR mice [4]; tail flick, IV) of the same molecule?
A: Its value is 168 (146-178) nmol.

Q: And the “# of Jumps (SEM)” value (male ICR mice [1])?
A: Its value is 100 (15).

Q: What about the “# of Jumps (SEM)” value (male ICR mice [1]; listed as morphine) of the same molecule?
A: Its value is 100±15.

Q: And the “Chronic ED50 nmol (95% C.L.)” value (male ICR mice [2])?
A: The value was 26.80 (20.82-32.78) nmol.

Q: What about the “Saline ED50 nmol (95% C.L.)” value (male ICR mice [2]) of the same molecule?
A: Its value is 4.54 (3.51-5.56) nmol.

Q: What about the “efficacy in the GIT inhibition assay” value (male ICR mice [5]) of the same molecule?
A: The value was “fully efficacious”.

Q: What about the “GIT inhibition ED50” value (male ICR mice [5]; charcoal meal 15 min after drug) of the same molecule?
A: Its value is 129 (115-142) nmol.

Q: And the “ED50 ICV (nmol)” value (male ICR mice [3])?
A: Its value is 4.1 (3.7-4.8) nmol.
